Test results published in US20180312493A1, “Antibiotic Compounds, Pharmaceutical Formulations Thereof And Methods And Uses Therefor” (Simon Fraser University, priority 2015, published 2018).
In brackets after ≈: the same amount, converted by molar mass. Read-outs that look alike come from different tables or passages of the source.

Tests used:
[1] = tested on: VRE#2 (2010A); experiment: In vitro susceptibility, broth microdilution (MIC); format: cell-based, vancomycin resistant Enterococci; settings: read-out: Antimicrobial activity (MIC) VRE#2
From the text: (§1) Epidemic methicillin resistant S. aureus (MRSA) strain sequenced at the Sanger Centre (MRSA252, NRS71) was obtained from NARSA (Network on Antimicrobial Resistance in S. aureus). Methicillin sensitive S. aureus (ATCC 29213 and 25923), methicillin resistant S. aureus (ATCC BAA-1762), and Salmonella typhimurium (ATCC BAA-185) were obtained from ATCC, The Global Bioresource Center. Acinetobacter baumannii (ATCC 19606 and ATCC 17978), Klebsiella pneumonia (C238), vancomycin resistant Enterococci #2 (2010A) (VRE#2), MRSA (USA400, MW2) and Pseudomonas aeruginosa (PA0-1) were obtained from the laboratory of Dr B. B. Finlay at the University of British Columbia (Vancouver, Canada).
(§2) The antimicrobial activities of PK inhibitor candidates were determined using the 96-well microtiter standard 2-fold serial broth microdilution method as described by CLSI (formerly NCCLS) with the various gram-positive and gram-negative bacteria species mentioned above. Bacteria from a single colony were grown, overnight in either BHI Broth (VRE), mueller hinton broth (S. aureus 29213; MRSA USA400, A. baumannii 19606, MRSA BAA-1762) or L-broth (P. aeruginosa, S. typhimurium, K. pneumonia and A. baumannii 17978). Each compound was prepared in DMSO with 2-fold serial dilutions to give a final concentration of, 0.031 to 64 μg/ml. 10 μl of the compound solution was then added, in duplicate, to either, 190 μl of cation adjusted mueller hinton broth (CAMHB) or 190 μl CAMHB containing ˜2.5×10^5 CFU/ml of bacteria (final compound concentration 0.031 to 64 μg/ml). Culture plates were incubated for 18-24 h at 37° C., and optical density at 600 nm (OD600) was measured using a Benchmark Plus™ microplate spectrophotometer (Bio-Rad™). The absorbance control values for the series containing CAMHB and inhibitor were subtracted as background from the corresponding infected wells. Minimal inhibitory concentration (MIC) was defined as the lowest concentration of test compound leading to complete inhibition of cell growth in relation to compound-free control wells as determined by optical density. Vancomycin, methicillin and ciprofloxicin were used as reference compounds. All assays were run in triplicate or duplicate. Experiments were replicated at least twice to verify reproducibility using the above conditions.

[2] = tested on: MRSA (ATCC BAA-1762); experiment: In vitro susceptibility, broth microdilution (MIC); format: cell-based, methicillin resistant S. aureus; settings: Staphylococcus aureus, read-out: Antimicrobial activity (MIC) MRSA ATCC BAA1762
From the text: as §1, §2

[3] = target: T1, MRSA Pyk (Staphylococcus aureus, UniProt Q6GG09); experiment: MRSA pyruvate kinase (PK) activity, continuous LDH-coupled assay; format: biochemical, methicillin resistant S. aureus (MRSA252)
T1 construct: made in house; host or cells: E. coli BL-21 (DE3)
How it was run: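 His-tagged MRSA PK (strain Sanger 252) and human PK isoforms expressed in E. coli BL-21 (DE3) and Ni-NTA purified, used at 15 nM in an LDH-coupled assay following NADH oxidation at 340 nm, 30° C, up to 5 min, ≤1% DMSO. IC50 from four-parameter variable-slope fit; Ki with PEP 2-20 mM, ADP fixed 2 mM, inhibitor 0-400 nM.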

[4] = tested on: S. aureus (ATCC29213); experiment: In vitro susceptibility, broth microdilution (MIC); format: cell-based; settings: Staphylococcus aureus
How it was run: (§3)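 CLSI 2-fold serial broth microdilution; K. pneumoniae C238 grown in L-broth, S. aureus ATCC 29213 in Mueller Hinton broth, plates incubated 18–24 h at 37 °C. MIC taken as lowest concentration giving complete growth inhibition by OD600 versus compound-free wells, background-subtracted.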

[5] = tested on: K. pneumoniae (C238); experiment: In vitro susceptibility, broth microdilution (MIC); format: cell-based; settings: Klebsiella pneumoniae; K. pneumoniae (C238); read-out: Antimicrobial activity (MIC) K. pneumoniae
How it was run: as §3

[6] = S. aureus ATCC29213, 18-24 h, 37 C, read-out: Antimicrobial activity (MIC) S. aureus ATCC29213

T1 sequence (Q6GG09 whole entry): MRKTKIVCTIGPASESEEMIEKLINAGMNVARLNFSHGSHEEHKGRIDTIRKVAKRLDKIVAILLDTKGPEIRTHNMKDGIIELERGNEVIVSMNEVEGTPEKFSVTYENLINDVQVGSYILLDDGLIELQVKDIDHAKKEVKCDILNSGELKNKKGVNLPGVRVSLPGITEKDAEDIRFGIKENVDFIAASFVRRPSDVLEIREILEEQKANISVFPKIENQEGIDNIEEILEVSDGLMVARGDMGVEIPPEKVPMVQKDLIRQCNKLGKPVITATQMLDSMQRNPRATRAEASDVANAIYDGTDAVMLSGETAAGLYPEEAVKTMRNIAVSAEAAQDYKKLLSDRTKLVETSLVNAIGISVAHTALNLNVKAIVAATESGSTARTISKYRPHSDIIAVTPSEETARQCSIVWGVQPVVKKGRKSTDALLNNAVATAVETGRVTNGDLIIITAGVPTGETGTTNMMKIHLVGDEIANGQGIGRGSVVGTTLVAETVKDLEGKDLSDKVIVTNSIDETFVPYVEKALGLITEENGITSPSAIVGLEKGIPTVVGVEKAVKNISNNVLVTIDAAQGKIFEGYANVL

SMILES | MIC ([1]; VRE#2 (2010A)) | MIC ([2]; MRSA ATCC BAA-1762) | IC50 [3] | MIC [4, 6] | MIC [5] | MIC [1] | MIC [2] | MIC ([4]; ATCC29213, read-out: Antimicrobial activity (MIC) S. aureus ATCC29213)
COCCC1CCCN1CCNC(=O)c1c(-c2cc3cc(Cl)ccc3[nH]2)[nH]c2cc(Br)ccc12 (stereo not drawn) [Compound 123, 6-Bromo-5′-chloro-N-(2-(2-(2-methoxyethyl)pyrrolidin-1-yl)ethyl)-1H,1′H-[2,2′-biindole]-3-carboxamide] | 8 µg/mL (≈ 14.7 µM) | 8 µg/mL (≈ 14.7 µM) | < 100 nM | 8 µg/mL (≈ 14.7 µM) |  |  |  | 
CN1CCN(CCNC(=O)c2c(-c3cc4cc(Cl)ccc4[nH]3)[nH]c3cc(Br)ccc23)C(c2ccccc2)C1 (stereo not drawn) [Compound 139, 6-Bromo-5′-chloro-N-(2-(4-methyl-2-phenylpiperazin-1-yl)ethyl)-1H,1′H-[2,2′-biindole]-3-carboxamide] | 8 µg/mL (≈ 13.5 µM) | 8 µg/mL (≈ 13.5 µM) | < 100 nM | 4 µg/mL (≈ 6.77 µM) |  |  |  | 
CCCC(=O)OC1CCN(CCNC(=O)c2c(/C=C/c3ccc(Cl)cc3)[nH]c3cc(Br)ccc23)CC1 [Compound 57, (E)-1-(2-(6-Bromo-2-(4-chlorostyryl)-1H-indole-3-carboxamido)ethyl)piperidin-4-yl Butyrate] | > 64 µg/mL |  | 100 to 1000 nM | > 64 µg/mL |  |  |  | 
CC(=O)Nc1nc2cc(Br)ccc2s1 [Compound 175, N-(5-bromobenzo[d]thiazol-2-yl)acetamide] | 32 µg/mL (≈ 118 µM) | 16 µg/mL (≈ 59 µM) |  | 32 µg/mL (≈ 118 µM) |  |  |  | 
CNC(=O)Cc1c(CCc2ccc(Cl)cc2)[nH]c2cc(Br)ccc12 [Compound 91, 2-(6-Bromo-2-(4-chlorophenethyl)-1H-indol-3-yl)-N-methylacetamide] |  |  |  | > 64 µg/mL | > 64 µg/mL |  |  | 
O=C(Cc1ccc(Cl)cc1)Nc1nc2ccc(Br)cc2s1 [Compound 109, N-(6-bromobenzo[d]thiazol-2-yl)-2-(4-chlorophenyl)acetamide] |  |  |  | > 64 µg/mL | > 64 µg/mL |  |  | 
Nc1c(/C=C/c2ccc(Cl)cc2)[nH]c2cc(Br)ccc12 [Compound 92, (E)-6-bromo-2-(4-chlorostyryl)-1H-indol-3-amine] | 32 µg/mL (≈ 92 µM) |  | < 100 nM | 64 µg/mL (≈ 184 µM) |  |  |  | 
CN(C)CCc1c(-c2nc3ccc(Cl)cc3o2)[nH]c2cc(Br)ccc12 [Compound 203, 2-(6-Bromo-2-(6-chlorobenzo[d]oxazol-2-yl)-1H-indol-3-yl)-N,N-dimethylethan-1-amine] |  |  | < 100 nM |  |  | 16 µg/mL (≈ 38.2 µM) | 8 µg/mL (≈ 19.1 µM) | 8 µg/mL (≈ 19.1 µM)
COCCN1CCN(CCNC(=O)c2c(-c3cc4cc(Cl)ccc4[nH]3)[nH]c3cc(Br)ccc23)CC1 [Compound 129, 6-bromo-5′-chloro-N-(2-(4-(2-methoxyethyl)piperazin-1-yl)ethyl)-1H,1′H-2,2′-biindole-3-carboxamide] | 16 µg/mL (≈ 28.6 µM) | 16 µg/mL (≈ 28.6 µM) | < 100 nM | 16 µg/mL (≈ 28.6 µM) |  |  |  | 
O=C1NCCn2c(cc3cc(Cl)ccc32)-c2[nH]c3cc(Br)ccc3c21 [Compound 74, 12-Bromo-2-chloro-7,8-dihydro-6H-[1,4]diazocino[1,8-a:7,6-b′]diindol-9(14H)-one] | 64 µg/mL (≈ 154 µM) |  | < 100 nM | 32 µg/mL (≈ 77.2 µM) |  |  |  | 
C[C@@H]1CN(CCNC(=O)c2c(-c3cc4cc(Cl)ccc4[nH]3)[nH]c3cc(Br)ccc23)[C@@H](C)CN1C [Compound 122, 6-Bromo-5′-chloro-N-(2-((2S,5R)-2,4,5-trimethylpiperazin-1-yl)ethyl)-1H,1′H-[2,2′-biindole]-3-carboxamide] | 8 µg/mL (≈ 14.7 µM) | 8 µg/mL (≈ 14.7 µM) | < 100 nM | 8 µg/mL (≈ 14.7 µM) |  |  |  | 
COC(=O)c1c(NS(=O)(=O)c2ccc(Cl)cc2)[nH]c2cc(Br)ccc12 [Compound 182, Methyl 6-bromo-2-((4-chlorophenyl)sulfonamido)-1H-indole-3-carboxylate] | 64 µg/mL (≈ 144 µM) | 0.5 µg/mL (≈ 1.13 µM) |  | 8 µg/mL (≈ 18 µM) |  |  |  | 
CC(C)(C)OC(=O)N1CCN(C(=O)c2c(-c3cc4cc(Cl)ccc4[nH]3)[nH]c3cc(Br)ccc23)C(C(=O)O)C1 (stereo not drawn) [Compound 224, 1-(6-bromo-5′-chloro-1H,1′H-[2,2′-biindole]-3-carbonyl)-4-(tert-butoxycarbonyl)piperazine-2-carboxylic Acid] | 32 µg/mL (≈ 53.2 µM) | 32 µg/mL (≈ 53.2 µM) | < 100 nM | 32 µg/mL (≈ 53.2 µM) |  |  |  | 
O=C(Nc1ccc(Cl)cc1)Nc1nc2cc(Br)ccc2s1 [Compound 141, 1-(5-bromobenzo[d]thiazol-2-yl)-3-(4-chlorophenyl)urea] |  | 0.5 µg/mL (≈ 1.31 µM) |  | 0.5 µg/mL (≈ 1.31 µM) |  |  |  | 
O=C(O)C(F)(F)C(F)(F)C(=O)c1c(/C=C/c2ccc(Cl)cc2)[nH]c2cc(Br)ccc12 [Compound 5, (E)-4-(6-Bromo-2-(4-chlorostyryl)-1H-indol-3-yl)-2,2,3,3-tetrafluoro-4-oxobutanoic Acid] |  |  | < 100 nM | 32 µg/mL (≈ 63.4 µM) |  |  |  | 
O=C(NCCN1CCC(O)CC1)c1c(/C=C/c2ccc(Cl)cc2)[nH]c2cc(Br)ccc12 [Compound 30, (E)-6-Bromo-2-(4-chlorostyryl)-N-(2-(4-hydroxypiperidin-1-yl)ethyl)-1 H-indole-3-carboxamide] |  |  | 100 to 1000 nM | 16 µg/mL (≈ 31.8 µM) |  |  |  | 
O=C(NCCC[n+]1ccccc1)c1c(-c2cc3cc(Cl)ccc3[nH]2)[nH]c2cc(Br)ccc12 [Compound 144, 1-(3-(6-bromo-5′-chloro-1H,1′H-[2,2′-biindole]-3-carboxamido)propyl)pyridin-1-ium] | 16 µg/mL | 16 µg/mL | < 100 nM | 8 µg/mL |  |  |  | 
COc1ccc(/C=C/c2[nH]c3cc(Br)ccc3c2C(=O)NCCO)nc1 [Compound 35, (E)-6-Bromo-N-(2-hydroxyethyl)-2-(2-(5-methoxypyridin-2-yl)vinyl)-1 H-indole-3-carboxamide] |  |  | 100 to 1000 nM | > 64 µg/mL |  |  |  | 
O=C(c1c(/C=C/c2ccc(Cl)cc2)[nH]c2cc(Br)ccc12)C1CC1 [Compound 2, (E)-(6-Bromo-2-(4-chlorostyryl)-1H-indol-3-yl)(cyclopropyl)methanone] |  |  | < 100 nM | 2 µg/mL (≈ 4.99 µM) |  |  |  | 
CN(C)C(=O)c1cc(Br)cc2[nH]c(/C=C/c3ccc(Cl)cc3)cc12 [Compound 64, (E)-6-Bromo-2-(4-chlorostyryl)-N,N-dimethyl-1H-indole-4-carboxamide] |  |  | < 100 nM | > 64 µg/mL |  |  |  | 
Cc1ccc2sc(NC(=O)Nc3ccc(Cl)cc3)nc2c1 [Compound 170, 1-(4-chlorophenyl)-3-(5-methylbenzo[d]thiazol-2-yl)urea] |  | 2 µg/mL (≈ 6.29 µM) |  | 4 µg/mL (≈ 12.6 µM) |  |  |  | 
CN(C)CCNC(=O)c1c(/C=C/c2cc(Cl)cc(Cl)c2)[nH]c2cc(Br)ccc12 [Compound 34, (E)-6-Bromo-2-(3,5-dichlorostyryl)-N-(2-(dimethylamino)ethyl)-1H-indole-3-carboxamide] |  |  | > 1000 nM | 16 µg/mL (≈ 33.2 µM) |  |  |  | 
